According to patent publication US12728173B2, “Heptamethine cyanine near-infrared fluorescent dye, preparation method therefor and use thereof” (NANJING NUOYUAN MEDICAL DEVICES CO., LTD, priority 2024, dated 2026):

Key:
[1] = Subcutaneous HepG2 tumor-bearing mouse models for in vivo imaging; conditions: tail vein, 0.5 mg/kg
Procedure: Subcutaneous HepG2 Tumor-Bearing Mouse Models (Human-Derived Liver Cancer Cells) for In Vivo Imaging
Test samples: the heptamethine cyanine near-infrared fluorescent dyes provided by Examples 1-4, and the heptamethine cyanine near-infrared fluorescent dyes provided by Comparative Examples 1-3.
Testing method: The subcutaneous HepG2 tumor-bearing mouse models were subjected to tail vein administration of the above samples (0.5 mg/kg, 100 μL of glucose injection), respectively. Indocyanine green (0.5 mg/kg, 100 μL of glucose injection) was taken as a control. After the administration, fluorescence imaging was performed using a surgical fluorescence imaging system (NANJING NUOYUAN MEDICAL DEVICES CO., LTD, 10B), at 0 h (before administration), 6 h, 12 h, 24 h, and 48 h in sequence.

tumor tissues = conditions: prior art CN111196896A; cited from earlier work

Q: With CC1(C)C(/C=C/C2=C(Cl)C(=C/C=C3/N(CCCS(=O)(=O)O)c4ccccc4C3(C)C)/CCC2)=[N+](CCCS(=O)(=O)O)c2ccc(S(=O)(=O)O)cc21 [Comparative Example 1] as the compound, how does the “hepatic accumulation and metabolism” value [1] read?
A: hepatic accumulation and non-metabolism

Q: What about the hepatic accumulation (tumor tissues) of the same compound?
A: deficiency of hepatic accumulation

Q: What about the tumor retention (tumor tissues) of the same compound?
A: exceeding 48 h

Q: What about the “tumor targeting capability compared with ICG” value (tumor tissues) of the same compound?
A: stronger
